Usually kinetic solubility stands for solubility judged after dilution from a stock solution rather than from solid.

≈ marks a conversion by molar mass, not a printed value.

The conditions of the data set: buffer; pH 7.4; 6.0 h; 150.0 µM.
`COc1cccc(C(=O)Nc2nnc(S(=O)(=O)N3CCOCC3)s2)c1` yielded a solubility (kinetic) greater than 57 µg/mL.

`Cc1noc(C)c1C(=O)N1CCC2(CCCN(C(c3ccccc3)c3ccccc3)C2)CC1` yielded a kinetic solubility of 1.15 µg/mL (≈ 2.6 µM).

In turn, `CN1CCC(N(Cc2cccs2)c2ccccc2)CC1` came in with a kinetic solubility greater than 42 µg/mL.

In turn, `Cc1cnc(CNc2nc(-c3ccccc3Cl)nc3ccccc23)cn1` gave a solubility (kinetic) of 41.9 µg/mL (≈ 116 µM).

`CC(C)c1ccccc1-c1ncc(F)c(NCc2ccc(-c3cccnc3)s2)n1` yielded a kinetic solubility of 0.132 µg/mL (≈ 0.326 µM). This solubility kinetic is about 320-fold lower than that of the compound before.

As for `COC(C)(C)CCn1nc(Nc2c(C)cccc2C)c2cnc(Nc3ccc(OCCN4CCCC4)c(F)c3)nc21`, the solubility (kinetic) was 28.3 µg/mL (≈ 50.3 µM).

`CC(C)c1ccccc1-c1nc(NCc2ccc(-c3cccnc3)cc2)c2ccccc2n1` registered a kinetic solubility of less than 1 µg/mL.

Take `O=C(NCc1ccco1)c1nc2nc(-c3cccs3)cc(C(F)(F)F)n2n1`: the solubility (kinetic) was 4.51 µg/mL (≈ 11.5 µM).

`COc1ccc(-n2nc(C3CCN([S+](=O)([O-])c4c(C)noc4C)CC3)[nH]c2=O)cc1` gave a kinetic solubility of less than 1 µg/mL.

For `Oc1cccc2nc3ccccc3nc12`, the solubility (kinetic) was greater than 29 µg/mL.

As for `Cc1cccc(C)c1C(=O)Nc1cccc([S+](=O)([O-])N2CCCCCC2)c1`, the solubility (kinetic) was found to be 2.03 µg/mL (≈ 5.26 µM).

Compound `CCOc1ccc(NC(=O)c2nc(S(=O)(=O)Cc3ccccc3F)ncc2Cl)cc1` returned a solubility (kinetic) of less than 1 µg/mL.

`CN([C@@H](Cc1ccc(OS(=O)(=O)c2cccc3cnccc23)cc1)C(=O)N1CCN(c2ccccc2)CC1)S(=O)(=O)c1cccc2cnccc12` displayed a solubility (kinetic) of 1.32 µg/mL (≈ 1.83 µM).

Compound `C1CCc2nc3c(nc2C1)CCCC3` displayed a solubility (kinetic) greater than 28 µg/mL.

`O=C1NC(=O)C(c2cnc3ccccn23)=C1c1cn2c3c(cccc13)CN(C(=O)N1CCOCC1)CC2` had a kinetic solubility greater than 73 µg/mL.

Compound `COc1ccc(-n2nc(C3CCCN(C(=O)C4CC4)C3)[nH]c2=O)cc1` (centres undefined) returned a solubility (kinetic) greater than 51 µg/mL.

`CCOC(=O)Cc1ccc(NC(=O)n2ncc3cc(Cl)ccc32)cc1` displayed a kinetic solubility of less than 1 µg/mL.

`CC(=O)NC(c1cccs1)c1cc(Br)c2cccnc2c1O` (centres undefined) yielded a kinetic solubility of less than 1 µg/mL.

`Oc1ccc(CNc2ccccc2C(F)(F)F)c2cccnc12` gave a kinetic solubility of 1.23 µg/mL (≈ 3.85 µM).

`Cc1cc(C)c(C(=O)Nc2cccc([S+](=O)([O-])N3CCCC3)c2)[nH]1` came in with a solubility (kinetic) of 11.5 µg/mL (≈ 33.1 µM).

`CC1=C(C(=O)Nc2nncs2)C2(CCCC2)N=C(Nc2nc3ccccc3o2)N1`: the solubility (kinetic) was less than 1 µg/mL.

As for `C[C@H]1CN(C(=O)c2nn(C)c3ccccc23)C[C@@H]1c1nc(-c2cccnc2)no1`, the kinetic solubility was 19.7 µg/mL (≈ 50.6 µM).

Compound `Cn1cc(-c2nc(Nc3ccc(F)c(F)c3)c3ccccc3n2)cn1` came in with a kinetic solubility of less than 1 µg/mL.

Take `Fc1ccc(Nc2nccc(-c3ccncc3)n2)cc1F`: the solubility (kinetic) was 2.48 µg/mL (≈ 8.71 µM).

Compound `Cc1ccnc(NC(=S)N2CC[C@@H](Nc3cccc(C(F)(F)F)c3)C2)c1` displayed a solubility (kinetic) of 7.92 µg/mL (≈ 20.8 µM). Against the preceding compound, the solubility kinetic is about 3.2-fold higher.

On to `N#Cc1cccc(-c2nccc(-n3ccnc3)n2)c1`, for which the kinetic solubility was 7.26 µg/mL (≈ 29.4 µM).

Consider `O=[N+]([O-])c1ccc(-c2nc(Nc3ccc(F)c(F)c3)c3ccccc3n2)cc1`, for which the kinetic solubility is less than 1 µg/mL.

`COc1cccc(CNc2ccc(S(=O)(=O)Nc3ccc(-c4ccccc4)cc3)cc2)c1O` yielded a solubility (kinetic) of less than 1 µg/mL.

For the compound `Cn1c(=O)c2c(-c3ccc(Cl)cc3)n(CCc3ccccc3)cc2n(C)c1=O`, the solubility (kinetic) came out at 2.15 µg/mL (≈ 5.46 µM).

`COc1ccc(-c2cc(-c3cccc(NC(C)=O)c3)cn3cncc23)cn1` yielded a kinetic solubility of 6.93 µg/mL (≈ 19.3 µM).

`CNC(=O)c1ccccc1Nc1nc(Nc2ccc(N3CCOCC3)cc2OC)ncc1Cl` showed a solubility (kinetic) of 4.18 µg/mL (≈ 8.91 µM).

`CCc1ccc(NC(=O)c2[nH]c(C)c(C(C)=O)c2C)cc1S(=O)(=O)Nc1cccc(C#N)c1` gave a kinetic solubility of 1.67 µg/mL (≈ 3.59 µM). Compared with the last compound, the solubility kinetic is about 2.5-fold lower.

Turning to `Cc1cc(C)nc(N2CCCC(C(=O)NCCc3ccc(F)cc3)C2)n1` (centres undefined), the solubility (kinetic) was found to be 2.77 µg/mL (≈ 7.77 µM).

`O=C1/C(=C\c2ccccc2)C[C@@]2(O)C3Cc4ccc(O)c5c4[C@@]2(CCN3CC2CC2)[C@H]1O5`: the solubility (kinetic) was greater than 42 µg/mL.

Turning to `Cc1ccc(NS(=O)(=O)c2ccccc2C(=O)Nc2nc(-c3ccccc3)cs2)cc1`, the solubility (kinetic) is less than 1 µg/mL.

For `COC(=O)c1ccnc(-c2cc(C(=O)Nc3ccc(C4(N)CC4)cc3)ccn2)c1`, the solubility (kinetic) worked out at 12.8 µg/mL (≈ 32.8 µM).

`CCN1CCc2c(sc(NC(=O)Nc3ccc(Cl)c(Cl)c3)c2C(N)=O)C1` gave a kinetic solubility of less than 1 µg/mL.

`Clc1ccc2ncc(-c3cccc(NC4CCNCC4)n3)n2c1`: the kinetic solubility was greater than 48 µg/mL.

`CC1CCC(n2c3cnccc3c3cnc(Nc4ccc5c(n4)CCN(C(=O)CO)C5)nc32)CC1` (centres undefined): the kinetic solubility was less than 1 µg/mL.

As to `Cc1ccc(-c2c(CN3CCN(c4cccc(C(F)(F)F)c4)CC3)csc2C)cc1`, the kinetic solubility was less than 1 µg/mL.

For the compound `COc1cccc(Nc2ncc(-c3cccc(N(C)C)c3)c3c2OCC3)c1`, the kinetic solubility was less than 1 µg/mL.

On to `COc1ccc(-c2ccc3ncc(Nc4ccc(C(N)=O)cc4)n3n2)cc1OC`, for which the solubility (kinetic) was 27.4 µg/mL (≈ 70.4 µM).

Compound `COc1cc(NC(=O)c2nc3ccccc3n(C)c2=O)cc(OC)c1OC` displayed a kinetic solubility of 7.16 µg/mL (≈ 19.4 µM).

The compound `COc1ccc(Nc2ncc(C(=O)Nc3cccc(Cl)c3)c3ccccc23)cc1` displayed a kinetic solubility of less than 1 µg/mL.

`CCCCc1ccc(NC(=O)c2ccc3c(c2)N(S(C)(=O)=O)CC3)cc1` came in with a kinetic solubility of 1.08 µg/mL (≈ 2.91 µM).

As for `Nc1c(-c2ccncc2)cc[nH]c1=O`, the kinetic solubility amounted to 11.8 µg/mL (≈ 63.1 µM).

As to `O=S(=O)(Nc1ccccc1N1CCCCC1)c1ccc(Cl)s1`, the solubility (kinetic) was 3.68 µg/mL (≈ 10.3 µM).

`Cc1cc(-c2nnc3n2CCCCC3)c(C)n1-c1cccc(Cl)c1` registered a kinetic solubility of 36.5 µg/mL (≈ 107 µM).

On to `COc1ncc(-c2n[nH]c3c2CC(=O)N(c2ccccc2)C3)cn1`, for which the solubility (kinetic) turned out to be 5.46 µg/mL (≈ 17 µM).

`O=C1CCCC2=C1C(c1[nH]ncc1Cl)N=C(Nc1nc3ccc(F)cc3o1)N2` (centres undefined) had a kinetic solubility of 1.53 µg/mL (≈ 3.81 µM).

Compound `O=C(c1ccncc1)N1CCC2(CCCN(C(c3ccccc3)c3ccccc3)C2)CC1` gave a kinetic solubility of less than 1 µg/mL.

Turning to `COc1ccc(-c2nc3ccccc3c(=O)n2Cc2ccco2)cc1COc1ccc(NC(C)=O)cc1`, the kinetic solubility is 2.35 µg/mL (≈ 4.74 µM).

With `CC[S+](=O)([O-])Nc1ccccc1C(=O)Nc1nc(-c2ccccc2)cs1`, the solubility (kinetic) was 40.5 µg/mL (≈ 104 µM).

Take `Cc1ccc(S(=O)(=O)NCC(=O)Nc2nc(-c3ccccc3)cs2)cc1`: the kinetic solubility is less than 1 µg/mL.

In turn, `CCOc1ccc(CCNC(=O)c2ccc(C(=O)c3ccccc3)cc2)cc1OCC` yielded a solubility (kinetic) of less than 1 µg/mL.

`CCc1ccc(C2N=C(N)Nc3nc4ccccc4n32)cc1` (centres undefined): the kinetic solubility was 6.87 µg/mL (≈ 23.6 µM).

Turning to `Cc1ccc(-n2ncc3c(Nc4cccc(C(=O)O)c4)ncnc32)cc1`, the solubility (kinetic) was greater than 51 µg/mL.

For the compound `COc1ccc(NC(=O)c2[nH]c(C)c(C(C)=O)c2C)cc1S(=O)(=O)N1CCCCCC1`, the solubility (kinetic) turned out to be 3.11 µg/mL (≈ 6.94 µM).

With `CC(=O)N1CCC2(CCCN(c3ccc(-c4ccccc4)cc3)C2)CC1`, the kinetic solubility is less than 1 µg/mL.

Compound `Fc1cccc(CN2CCNc3cc(Nc4ccccc4)ncc3C2)c1` had a kinetic solubility of 27.3 µg/mL (≈ 78.3 µM).

`Cc1cc(C)nc(NC(=S)N2CCN(c3ccncc3)CC2)c1` showed a solubility (kinetic) greater than 48 µg/mL.

`O=C(O)c1ccnc2cc(C(OCC3CCC(F)(F)CC3)c3ccccc3Cl)[nH]c12` (centres undefined): the kinetic solubility was greater than 64 µg/mL.

`Cc1cccc(C(=O)Nc2ccc(N3CCC(N4CCCCC4)CC3)c(C(=O)O)c2)c1`: the solubility (kinetic) is greater than 62 µg/mL.

Turning to `Cc1cccc(Nc2nc(NCc3ccco3)c3ccccc3n2)c1.Cl`, the solubility (kinetic) is less than 1 µg/mL.

In the case of `COc1ccc2c(c1)CCc1c-2n[nH]c1C(=O)N1CCc2c(nc3cc(-c4ccccc4)[nH]n3c2=O)C1`, the kinetic solubility was less than 1 µg/mL.

Take `COc1cc(-c2nc(Cn3nnc(C(=O)Nc4cc(C)cc(C)c4)c3C)c(C)o2)cc(OC)c1OC`: the solubility (kinetic) is less than 1 µg/mL.

Turning to `c1ccc2[nH]c(Nc3nc(-c4ccncc4)nc4ccccc34)nc2c1`, the solubility (kinetic) was less than 1 µg/mL.

In turn, `CCc1ccc(NC(=O)c2cc3ncccn3n2)cc1` yielded a solubility (kinetic) of 6.75 µg/mL (≈ 25.3 µM).

As to `CC[C@H]1CN2CCC3CC(OC)C(OC)CC3[C@@H]2C[C@@H]1C[C@H]1NCCC2=C1CC(OC)=C(O)C2` (some centres undefined), the solubility (kinetic) is 44.6 µg/mL (≈ 93.9 µM).

Turning to `COc1cc2c(Nc3ccc(Br)cc3F)ncnc2cc1OCC1CCN(C)CC1`, the solubility (kinetic) is greater than 70 µg/mL.

Compound `Fc1cc(Nc2nc(-c3ccncc3)nc3ccccc23)ccc1-c1cn[nH]c1` gave a solubility (kinetic) of less than 1 µg/mL.

The compound `O=C(O)c1cccc(-c2cnc3ccccc3c2)c1` returned a solubility (kinetic) greater than 37 µg/mL.

The compound `C[C@@H]1C(=O)O[C@H]2[C@H]1CC[C@@]1(C)Cc3sc(NS(=O)(=O)Cc4ccccc4)nc3[C@@H](C)[C@H]21` registered a kinetic solubility greater than 68 µg/mL.

Turning to `Cc1nnn(C)c1-c1cnc2c3ccc(C(C)(C)O)cc3n([C@H](c3ccccc3)C3CCOCC3)c2c1`, the kinetic solubility is 29.6 µg/mL (≈ 59.6 µM).

In turn, `O=C(Nc1ccc(Cl)c(S(=O)(=O)N2CCOCC2)c1)c1ccc(S(=O)(=O)N2CCOCC2)cc1` yielded a solubility (kinetic) of less than 1 µg/mL.

In the case of `CCOc1ccc(CN2C(=O)c3ccccc3Sc3ccc(C(=O)NC4CCC(C)CC4)cc32)cc1` (centres undefined), the solubility (kinetic) came out at 6.78 µg/mL (≈ 13.5 µM).

For the compound `NC(=O)C1CCN(c2nc(-c3ccccc3-c3ccccc3)cs2)CC1`, the solubility (kinetic) came out at 30.6 µg/mL (≈ 84.3 µM).

In turn, `c1ccc2c(Nc3ccn[nH]3)nc(-c3ccncc3)nc2c1` came in with a solubility (kinetic) of less than 1 µg/mL.

In turn, `CC(C)(C)CC(C)(C)c1ccc(O)cc1` displayed a solubility (kinetic) of 2.09 µg/mL (≈ 10.1 µM).

Compound `NC(=O)C1CCN(c2nc(-c3cccc(Br)c3)cs2)CC1` displayed a solubility (kinetic) of 20.5 µg/mL (≈ 55.9 µM).

`O=C(O)c1ccccc1C(=O)Nc1ccc(-c2ccccc2)cc1`: the kinetic solubility was greater than 47 µg/mL.

In the case of `Fc1ccc(F)c(Nc2nc(-c3ccncc3)nc3ccccc23)c1`, the solubility (kinetic) is less than 1 µg/mL.

Compound `CC(=O)c1c(C)[nH]c(C(=O)Nc2cccc(S(=O)(=O)N3CCOCC3)c2)c1C` yielded a solubility (kinetic) greater than 60 µg/mL.

Take `CCOc1ccccc1C(=O)Nc1ccccc1C(=O)Nc1cccc(C(F)(F)F)c1`: the solubility (kinetic) was less than 1 µg/mL.

As to `CCN1CCC(N(Cc2ccc3c(c2)OCO3)C(=O)Nc2cc(Cl)ccc2C(=O)OC)CC1`, the solubility (kinetic) is 58.5 µg/mL (≈ 123 µM).

`CC1=C(C(=O)Nc2nccs2)C(c2ccccc2Br)N=C(Nc2nc3ccccc3o2)N1` (centres undefined) had a kinetic solubility of less than 1 µg/mL.

Compound `CC(=O)c1c(C)[nH]c(C(=O)Nc2ccc(C)c(S(=O)(=O)Nc3ccc(Br)cc3)c2)c1C` gave a solubility (kinetic) of less than 1 µg/mL.

For the compound `COc1ccc(C(=O)NC2CCN(c3cnn(CC4CC4)c(=O)c3)CC2)cc1`, the kinetic solubility worked out at 8.61 µg/mL (≈ 22.5 µM).

`CCn1nnnc1Sc1ncnc2scc(-c3ccc(C)cc3)c12` registered a solubility (kinetic) of 3.32 µg/mL (≈ 9.35 µM).

For the origin of these results see PubChem BioAssay AID1645848.
